From US20110212053A1, “PHOSPHATIDYLINOSITOL 3 KINASE INHIBITORS” (priority 2008, published 2011) come the findings set out here.

Bounds are passed on as bounds.

Test [1] addresses T1, PI3Kγ (Homo sapiens, UniProt P48736).
T1 construct: purchased Invitrogen or Millipore
In words: KinaseGLO luminescent PI3-kinase assay, PI3Kγ. The test is classed as biochemical. How it is done:
(§1) Compound Preparation: KinaseGLO assay: 30× stocks of inhibitors were prepared in DMSO. A 10 mM master stock was prepared and all other stocks were generated by serial dilution of this master stock in DMSO. The final concentration of DMSO in the kinase reaction was 3.3% (v/v).
(§2) PI3-Kinase Assay: The KinaseGLO® Luminescent Kinase Assay (Promega) is a luciferin-luciferase based luminescent assay that utilizes a proprietary thermostable luciferase to quantify the ATP remaining in a solution after a kinase reaction. The luminescent signal generated using KinaseGLO® directly correlates with ATP concentration, and therefore inversely correlates with kinase activity.
(§3) PI3K enzyme sample was thawed and diluted to 100 ng/μL in enzyme dilution buffer (50 mM HEPES, pH7.5, 3.0 mM MgCl2, 1.0 mM EGTA) and stored on ice. PI3Kα enzyme was diluted to a final concentration of 1 ng/μL in reaction buffer (for PI3Kα; 50 mM HEPES, pH7.5, 100 mM NaCl, 2.0 mM DTT, 3.0 mM MgCl2, 1.0 mM EGTA, 10 μM ATP) and gently mixed. 25 μL of this kinase reaction was then aliquoted into test wells in a Microfluor2 white 96-well plate (Thermo Scientific). As a preincubation step, 1 μl of 30× compound dilutions was added to the appropriate test wells to generate a ten point dose-response ranging from 0.0 μM-10 μM inhibitor. […] Luminescent signal was detected using a SpectraMax M5 (Molecular Devices). Maximal luminescence (no PI3K activity/maximal PI3K inhibition) was determined from reaction buffer plus SC-PI substrate only controls. The minimal signal (maximal PI3K activity) was determined by the 0.0 μM compound (DMSO only) control. IC50 values were calculated via non-linear regression using GraphPad Prism data analysis software.
(§4) Compounds were assayed against the Class I PI3Kα, PI3Kβ, PI3Kγ, PI3Kδ, PI3Kα(H1047R) and PI3Kα(E545K) in the KinaseGLO assay as described in Example 2, and against the Class IV PI3K mTOR in the radiometric assay. IC50 values (μM) were determined using 8-10 point half-log dose dilutions and calculated via nonlinear regression analysis using Graphpad Prism data analysis software.

Test [2] addresses T2, PI3Kα(E545K) (Homo sapiens, UniProt P42336, E545K).
T2 construct: purchased Invitrogen or Millipore
In words: KinaseGLO luminescent PI3-kinase assay, mutant PI3Kα(E545K). The class given is biochemical. How it is done: as §1, §2, §3, §4
(In general: Kinase-Glo measures the ATP left after a reaction by luminescence.)

For test [3], the target named is TRKC (Homo sapiens, UniProt Q16288). The test can be described thus: Radiometric HotSpot kinase assay, TRKC. The class given is biochemical. The note with it: 1 μM compound, 10 μM ATP. Here is the method:
(§5) Kinase Profiling: The inhibitory activity of the PI3K inhibitor compounds of the invention against 250 protein kinases was determined via the radiometric HotSpot Kinase Profiling (Reaction Biology Corporation, Malvern, Pa.). Compounds were profiled at a final concentration of 1 μM compound against recombinant protein kinases in the presence of 10 μM ATP and data were expressed as percent inhibition. IC50 and/or percent inhibition at 1 μM compound values were determined for select compounds against a subset of kinases (MELK, MNK1, MNK2, mTOR, PIM-1. TRKC, and PDGFRα(D842V)).
(§6) Compounds of the invention were assayed against the select kinases using the KinaseGLO assay (MELK) or the radiometric assay (PIM, TRKC, PDGFRα(D842V), MNK1 and mTOR). IC50 values were determined using 8-10 point half-log dose dilutions and calculated via nonlinear regression analysis using Graphpad Prism data analysis software.

The target in test [4] is PIM-1 (Homo sapiens, UniProt P11309). In words: Radiometric HotSpot kinase assay, PIM-1. The test is classed as biochemical. The note with it: 1 μM compound, 10 μM ATP. How it is done: as §5, §6
PIM-1, sequence (P11309 whole entry): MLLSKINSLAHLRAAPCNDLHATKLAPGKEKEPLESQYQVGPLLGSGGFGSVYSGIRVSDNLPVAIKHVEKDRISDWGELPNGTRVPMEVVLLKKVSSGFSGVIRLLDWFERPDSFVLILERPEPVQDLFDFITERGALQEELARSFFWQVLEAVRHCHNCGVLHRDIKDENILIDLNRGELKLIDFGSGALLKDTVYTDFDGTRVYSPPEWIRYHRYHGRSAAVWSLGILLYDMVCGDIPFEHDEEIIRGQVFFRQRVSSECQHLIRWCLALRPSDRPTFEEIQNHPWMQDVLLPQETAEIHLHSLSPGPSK
The test system of test [5] is U-87 MG cells. In words: CellTiter-GLO cell proliferation assay, U-87 MG. The class given is cell-based. The note with it: Homo sapiens, preliminary experiments, no unit printed with the values (paragraph speaks of nM), read-out: mean concentration for 50% inhibition of U-87 MG cell proliferation. Here is the method: Compound Preparation: Cell-based assays: 1000× stocks of inhibitors were prepared in DMSO. A 10 mM master stock was prepared and all other stocks were generated by serial dilution of the master stock in DMSO. The final concentration of DMSO in cell-based assays was 0.1% (v/v).
CellTiter-GLO® Cell Proliferation Assay: CellTiter-GLO® (Promega) quantifies cell number as a measure of the ATP in a cell culture. 1,000-10,000 human tumor cells (of multiple histotypes) were plated in 100 μL of growth medium (10% (v/v) FBS in DMEM) in white, collagen coated 96-well plates (Biocoat) and allowed to adhere overnight at 37° C. in a 5% CO2 incubator. All test inhibitors were prepared in DMSO. For EC50 determinations, 1000× inhibitor stocks were prepared from a 10 mM master stock by serial dilution in DMSO and subsequently diluted in fresh growth medium to the desired inhibitor concentration. The growth medium was removed by aspiration and replaced with fresh medium containing inhibitors. […]
After 72 hours, the plates were removed from the incubator and equilibrated to room temperature for 30 minutes. […] Plates were incubated in the dark for 10 minutes at room temperature before reading luminescence on a SpectraMax M5 luminometer. Results are expressed as % inhibition relative to control cells (DMSO only). EC50 values were calculated via non-linear regression using GraphPad Prism data analysis software.
A general note: Cellular ATP, detected with luciferase, serves as a proxy for viable cell number.

In test [6] the target is PDGFRα(D842V) (Homo sapiens, UniProt P16234, D842V). The test can be described thus: Radiometric HotSpot kinase assay, PDGFRα(D842V). The class given is biochemical. Here is the method: as §5, §6
PDGFRα(D842V), sequence (P16234 24-1089 D842V): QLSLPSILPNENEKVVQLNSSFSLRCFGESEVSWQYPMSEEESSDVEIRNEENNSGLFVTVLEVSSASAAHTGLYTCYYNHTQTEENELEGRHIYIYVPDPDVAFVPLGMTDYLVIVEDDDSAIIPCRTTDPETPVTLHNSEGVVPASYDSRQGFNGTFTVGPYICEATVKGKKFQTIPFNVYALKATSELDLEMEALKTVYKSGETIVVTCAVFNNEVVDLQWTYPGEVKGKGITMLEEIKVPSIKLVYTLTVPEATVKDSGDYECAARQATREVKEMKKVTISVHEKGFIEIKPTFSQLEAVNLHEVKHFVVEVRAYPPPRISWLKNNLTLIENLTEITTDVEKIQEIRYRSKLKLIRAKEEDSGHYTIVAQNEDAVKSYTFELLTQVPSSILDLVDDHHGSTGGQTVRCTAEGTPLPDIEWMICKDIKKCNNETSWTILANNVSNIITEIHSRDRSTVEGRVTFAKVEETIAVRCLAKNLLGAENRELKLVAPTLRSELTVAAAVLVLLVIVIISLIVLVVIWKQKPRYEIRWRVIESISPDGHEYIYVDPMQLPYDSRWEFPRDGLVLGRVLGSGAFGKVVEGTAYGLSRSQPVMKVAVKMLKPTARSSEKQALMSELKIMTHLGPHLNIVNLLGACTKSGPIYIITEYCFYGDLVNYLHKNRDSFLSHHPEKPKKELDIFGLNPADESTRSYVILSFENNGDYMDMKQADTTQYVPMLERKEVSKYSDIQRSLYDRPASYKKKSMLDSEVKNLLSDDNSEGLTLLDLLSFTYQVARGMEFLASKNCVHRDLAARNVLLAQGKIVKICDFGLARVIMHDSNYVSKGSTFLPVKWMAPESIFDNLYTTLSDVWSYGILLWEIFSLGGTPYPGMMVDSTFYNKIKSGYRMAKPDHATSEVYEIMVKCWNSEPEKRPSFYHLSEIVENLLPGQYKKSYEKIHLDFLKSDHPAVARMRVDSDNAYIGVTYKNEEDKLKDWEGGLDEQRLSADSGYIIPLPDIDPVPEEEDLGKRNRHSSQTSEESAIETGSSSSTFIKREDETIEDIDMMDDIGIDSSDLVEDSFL

T1 sequence (P48736 whole entry): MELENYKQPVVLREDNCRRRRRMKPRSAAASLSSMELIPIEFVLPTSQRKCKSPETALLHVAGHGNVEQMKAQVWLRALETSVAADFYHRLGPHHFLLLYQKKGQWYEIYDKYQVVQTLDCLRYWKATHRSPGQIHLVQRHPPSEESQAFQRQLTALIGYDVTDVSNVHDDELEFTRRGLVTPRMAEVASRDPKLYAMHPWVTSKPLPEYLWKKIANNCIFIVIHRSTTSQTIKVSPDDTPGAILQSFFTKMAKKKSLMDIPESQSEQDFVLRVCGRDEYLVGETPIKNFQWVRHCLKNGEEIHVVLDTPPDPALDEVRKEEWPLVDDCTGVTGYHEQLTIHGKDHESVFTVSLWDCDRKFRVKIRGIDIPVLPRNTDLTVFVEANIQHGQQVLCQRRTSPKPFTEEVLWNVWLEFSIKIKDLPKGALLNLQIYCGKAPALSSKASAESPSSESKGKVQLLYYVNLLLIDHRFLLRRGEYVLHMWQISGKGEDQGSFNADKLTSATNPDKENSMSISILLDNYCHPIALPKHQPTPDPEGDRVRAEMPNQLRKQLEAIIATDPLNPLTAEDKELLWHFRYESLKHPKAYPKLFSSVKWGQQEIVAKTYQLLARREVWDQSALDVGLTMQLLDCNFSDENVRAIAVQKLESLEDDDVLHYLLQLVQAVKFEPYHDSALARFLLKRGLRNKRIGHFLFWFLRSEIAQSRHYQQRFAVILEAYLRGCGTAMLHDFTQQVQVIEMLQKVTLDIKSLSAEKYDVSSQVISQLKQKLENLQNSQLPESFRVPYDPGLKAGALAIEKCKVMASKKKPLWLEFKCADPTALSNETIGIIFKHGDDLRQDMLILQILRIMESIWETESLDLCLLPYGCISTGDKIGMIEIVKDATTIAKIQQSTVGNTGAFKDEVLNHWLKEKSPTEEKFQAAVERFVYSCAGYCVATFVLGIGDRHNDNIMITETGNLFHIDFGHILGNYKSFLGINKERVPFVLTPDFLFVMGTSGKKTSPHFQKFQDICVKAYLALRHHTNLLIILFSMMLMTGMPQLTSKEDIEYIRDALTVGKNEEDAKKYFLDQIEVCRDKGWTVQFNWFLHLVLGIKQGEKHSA
T2 sequence (P42336 whole entry E545K): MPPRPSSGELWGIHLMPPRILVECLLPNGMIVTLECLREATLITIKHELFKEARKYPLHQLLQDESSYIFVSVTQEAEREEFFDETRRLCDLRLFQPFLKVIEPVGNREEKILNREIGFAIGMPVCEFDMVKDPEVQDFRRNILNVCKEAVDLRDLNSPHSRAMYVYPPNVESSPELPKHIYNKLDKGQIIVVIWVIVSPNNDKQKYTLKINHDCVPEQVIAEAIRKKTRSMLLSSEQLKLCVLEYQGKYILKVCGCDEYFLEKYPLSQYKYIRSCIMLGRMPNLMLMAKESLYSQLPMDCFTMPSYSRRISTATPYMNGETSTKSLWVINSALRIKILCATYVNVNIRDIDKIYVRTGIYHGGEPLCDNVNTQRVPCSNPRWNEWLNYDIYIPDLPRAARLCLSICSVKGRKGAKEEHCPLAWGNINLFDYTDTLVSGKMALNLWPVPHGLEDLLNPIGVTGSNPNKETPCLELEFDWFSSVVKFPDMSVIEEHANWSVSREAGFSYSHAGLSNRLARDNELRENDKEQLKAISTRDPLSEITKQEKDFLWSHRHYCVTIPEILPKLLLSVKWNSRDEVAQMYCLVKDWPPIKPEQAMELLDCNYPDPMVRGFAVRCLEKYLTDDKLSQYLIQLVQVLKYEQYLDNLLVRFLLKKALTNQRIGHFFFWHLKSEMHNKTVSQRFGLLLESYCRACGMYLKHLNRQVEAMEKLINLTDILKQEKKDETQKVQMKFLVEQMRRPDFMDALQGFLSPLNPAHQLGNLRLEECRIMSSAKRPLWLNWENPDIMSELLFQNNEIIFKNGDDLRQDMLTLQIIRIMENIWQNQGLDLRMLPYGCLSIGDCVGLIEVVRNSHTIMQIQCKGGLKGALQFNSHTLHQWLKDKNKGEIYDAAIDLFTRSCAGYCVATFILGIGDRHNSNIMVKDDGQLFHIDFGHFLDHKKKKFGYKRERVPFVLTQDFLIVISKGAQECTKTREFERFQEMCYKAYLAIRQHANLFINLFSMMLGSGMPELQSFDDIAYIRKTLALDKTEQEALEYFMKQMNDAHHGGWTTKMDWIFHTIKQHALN
T2 sequence (P27986 whole entry partner): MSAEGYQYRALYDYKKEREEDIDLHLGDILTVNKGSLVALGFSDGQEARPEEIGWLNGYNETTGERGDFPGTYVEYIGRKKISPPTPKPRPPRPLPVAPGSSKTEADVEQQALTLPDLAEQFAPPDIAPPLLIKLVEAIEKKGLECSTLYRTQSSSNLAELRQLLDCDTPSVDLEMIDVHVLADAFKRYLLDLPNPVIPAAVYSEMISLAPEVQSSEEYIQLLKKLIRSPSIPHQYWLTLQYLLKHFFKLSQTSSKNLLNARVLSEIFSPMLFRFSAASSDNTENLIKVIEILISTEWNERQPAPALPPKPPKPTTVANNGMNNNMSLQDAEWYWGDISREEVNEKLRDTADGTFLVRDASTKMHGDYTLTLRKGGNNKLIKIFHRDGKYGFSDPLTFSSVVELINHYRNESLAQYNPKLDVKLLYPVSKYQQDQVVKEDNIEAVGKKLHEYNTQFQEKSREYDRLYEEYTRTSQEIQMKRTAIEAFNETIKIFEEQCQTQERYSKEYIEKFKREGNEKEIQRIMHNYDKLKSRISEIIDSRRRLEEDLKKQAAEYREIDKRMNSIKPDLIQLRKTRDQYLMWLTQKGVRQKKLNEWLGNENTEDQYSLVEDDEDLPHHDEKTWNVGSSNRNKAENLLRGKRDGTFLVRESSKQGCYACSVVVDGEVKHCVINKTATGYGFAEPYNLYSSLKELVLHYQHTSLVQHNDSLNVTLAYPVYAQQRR
TRKC, sequence (Q16288 32-839): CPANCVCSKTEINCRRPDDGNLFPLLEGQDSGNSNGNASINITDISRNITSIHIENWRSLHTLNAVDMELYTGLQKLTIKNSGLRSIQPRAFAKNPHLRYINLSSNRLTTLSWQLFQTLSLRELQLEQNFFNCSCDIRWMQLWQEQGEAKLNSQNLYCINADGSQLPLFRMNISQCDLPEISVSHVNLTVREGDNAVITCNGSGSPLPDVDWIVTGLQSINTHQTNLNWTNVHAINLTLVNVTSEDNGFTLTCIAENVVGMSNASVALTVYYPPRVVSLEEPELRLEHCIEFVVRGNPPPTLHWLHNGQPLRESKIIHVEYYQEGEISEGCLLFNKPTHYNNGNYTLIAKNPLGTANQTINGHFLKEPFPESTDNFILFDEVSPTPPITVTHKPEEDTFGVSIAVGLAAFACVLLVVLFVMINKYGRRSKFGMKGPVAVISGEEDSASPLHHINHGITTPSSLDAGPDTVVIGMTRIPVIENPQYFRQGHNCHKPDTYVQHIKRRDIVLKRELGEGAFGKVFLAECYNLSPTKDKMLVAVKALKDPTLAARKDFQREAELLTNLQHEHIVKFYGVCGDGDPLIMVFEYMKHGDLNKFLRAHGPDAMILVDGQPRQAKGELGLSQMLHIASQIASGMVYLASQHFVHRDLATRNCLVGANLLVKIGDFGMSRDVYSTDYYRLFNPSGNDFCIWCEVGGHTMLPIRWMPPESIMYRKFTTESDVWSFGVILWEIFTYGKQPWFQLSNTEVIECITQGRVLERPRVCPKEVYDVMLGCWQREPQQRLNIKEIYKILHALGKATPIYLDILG

For orientation: inhibition means the relative decrease from the control value, in per cent. Low readings indicate a weak effect, high ones a strong effect. For the molecule `CC(C)(C#N)c1ccc(-c2n[nH]c3cnc4ccc(-c5cccnc5)cc4c23)cc1` [Compound 1107, 2-methyl-2-(4-(8-(pyridin-3-yl)-3H-pyrazolo[3,4-c]quinolin-1-yl)phenyl)propanenitrile], the IC50 in test [1] is 10 to 25 nM; in test [2], below 10 nM; in test [5], 470 nM. The inhibition at 1 µM in test [3] is above 97%; in test [4], 85 to 95%.

For `CC(C)(C#N)c1ccc(-c2n[nH]c3cnc4ccc(-c5cnc6ccccc6c5)cc4c23)cc1` [Compound 1078, 2-methyl-2-(4-(8-(quinolin-3-yl)-3H-pyrazolo[3,4-c]quinolin-1-yl)phenyl)propanenitrile], the values for the IC50 in test [1], in test [2] and in test [5] were 10 to 25 nM, 15 to 55 nM and 295 nM, respectively.

`CC(C)(C#N)c1ccc(-c2n[nH]c3cnc4ccc(-c5ccc6ncccc6c5)cc4c23)cc1` [Compound 1110, 2-methyl-2-(4-(8-(quinolin-6-yl)-3H-pyrazolo[3,4-c]quinolin-1-yl)phenyl)propanenitrile]: the IC50 is 10 to 25 nM in test [1], 15 to 55 nM in test [2] and above 100 nM in test [6]. In addition, the inhibition at 1 µM in test [3] is above 80%; in test [4], 60 to 85%.
